According to patent publication US4060530A, “Clavulanic acid amides” (Beecham Group Limited, priority 1975, dated 1977):
Values after ≈ are worked out from the molar mass of the structure shown. Where two headings read alike, the source gives them in different places. One block for each compound: values may come before it.

Experiments:
bacteria = experiment: Tests for antibacterial activity in broth (Example 32); type: cell-based; conditions: may be due to clavulanic acid liberated by hydrolysis
[1] = Hydrolysis of the methyl ester to clavulanic acid in pH 7 buffer; type: physicochemical
Protocol: The reaction was followed by paper chromatography (bioautographic system). Using the butanol/ethanol/water system to follow the reaction over a period of 2 hours the zone of the methyl ester at Rf 0.79 decreased in size as the zone of clavulanic acid at Rf 0.12 increased.

Klebsiella aerogenes A [2] = experiment: Growth inhibition / synergism; type: cell-based; conditions: for MIC: Klebsiella aerogenes, agent alone, read-out: concentration in whose presence growth is not inhibited; for concentration inhibiting growth when 5 μg/ml. of clavulanic acid is also present: plus 5 μg/ml clavulanic acid
[3] = test system: strains of Klebsiella aerogenes (A, E 70, 62); experiment: Growth inhibition of the test organisms of Table 8 by the esters alone; conditions: read-out: concentration at which growth of the test organisms was not inhibited
Staph. aureus Oxford = experiment: MIC, method of Example 30 with 1/100 dilution of overnight broth (Example 46)
Bacillus subtilis A = experiment: as above
Escherchia coli 10418 = experiment: as above
Staph. aureus Russell = experiment: as above
Proteus mirabilis C889 = experiment: M.I.C. synergism with clavulanic acid methyl ester (Example 32); type: cell-based; conditions: plus 5 μg/ml clavulanic acid methyl ester
Klebsiella aerogenes 62 = experiment: MIC / synergism, microtitre method (Example 42); type: cell-based; conditions: for Antibacterial synergism value, +5μg/ml. synergist (M.I.C. by method of Example 42): +5μg/ml. synergist (clavulanic acid sodium salt); for MIC: Klebsiella aerogenes, 62, Alone (Tables 7, 8), Example 42 records M.I.C. in μg/ml, read-out: Antibacterial synergism value, Alone (M.I.C. by method of Example 42)
[4] = test system: Staphylococcus aureus Russell; experiment: Growth inhibition / synergism; type: cell-based; conditions: for MIC: Staphylococcus aureus, agent alone, read-out: concentration in whose presence growth is not inhibited
Serratia marcescens = experiment: MIC / synergism, microtitre method (Example 42); type: cell-based; conditions: agent alone, inoculum final dilution 0.5 ×10^-2, 37° C overnight, read-out: Minimum Inhibitory Concentration
Klebsiella aerogenes A [5] = experiment: MIC / synergism, microtitre method (Example 42); type: cell-based; conditions: for Antibacterial synergism value, +5μg/ml. synergist (M.I.C. by method of Example 42): +5μg/ml. synergist (clavulanic acid sodium salt); for MIC: Klebsiella aerogenes, Alone (Tables 7, 8), Example 42 records M.I.C. in μg/ml, read-out: Antibacterial synergism value, Alone (M.I.C. by method of Example 42)
[6] = test system: Staphylococcus aureus (Russell); experiment: M.I.C. synergism with clavulanic acid methyl ester (Example 32); type: cell-based
[7] = test system: Escherichia coli NCTC 10481; experiment: MIC / synergism, microtitre method (Example 42); type: cell-based; conditions: NCTC10481, agent alone, inoculum final dilution 0.5 ×10^-2, 37° C overnight, read-out: Minimum Inhibitory Concentration
[8] = test system: Klebsiella aerogenes E 70; experiment: MIC / synergism, microtitre method (Example 42); type: cell-based; conditions: for Antibacterial synergism value, +5μg/ml. synergist (M.I.C. by method of Example 42): +5μg/ml. synergist (clavulanic acid sodium salt); for MIC: Klebsiella aerogenes
Staphylococcus aureus = experiment: MIC / synergism, microtitre method (Example 42); type: cell-based; conditions: for MIC: Staphylococcus aureus, agent alone (Tables 5, 6), inoculum final dilution 0.5 ×10^-2, 37° C overnight, read-out: Minimum Inhibitory Concentration
[9] = test system: Staphylococcus aureus (Russell); experiment: MIC / synergism, microtitre method (Example 42); type: cell-based
Proteus mirabilis 899 = experiment: microbe, parasite or virus in culture; type: cell-based; conditions: method of Example 42
[10] = molecular target: T1, β-lactamase produced by Escherichia coli JT4 (Escherichia coli, UniProt P62593); experiment: β-lactamase inhibition assay (Description 1); type: biochemical
T1 construct: This cell suspension was then disrupted in an MSE ultrasonic disintegrator; endogenous in cells; supernatant of sonicated cells
T1 sequence (P62593 24-286 limits assumed): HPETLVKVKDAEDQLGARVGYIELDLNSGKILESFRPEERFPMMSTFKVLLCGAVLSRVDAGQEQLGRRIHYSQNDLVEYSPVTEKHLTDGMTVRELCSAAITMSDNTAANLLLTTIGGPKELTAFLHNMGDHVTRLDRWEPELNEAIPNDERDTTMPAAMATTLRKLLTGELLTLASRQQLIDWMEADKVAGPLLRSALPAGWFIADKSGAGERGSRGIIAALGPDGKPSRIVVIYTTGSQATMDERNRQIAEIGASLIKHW

[11] = heavy inoculum, 1/100 dilution of overnight broth, Example 30 records MIC in μg/ml
[12] = with 5 μg/ml of benzyl ester of clavulanic acid
[13] = with 5 μg/ml of methyl ester of clavulanic acid
[14] = plus 5 μg/ml clavulanic acid sodium salt, method of Example 42

Compound: COC(=O)[C@H]1/C(=C/CO)O[C@@H]2CC(=O)N21 [clavulanic acid methyl ester]
- antibacterial activity in broth (bacteria): broad spectrum activity but of a lower order than shown by clavulanic acid
- conversion of the ester to clavulanic acid ([1]; 1 mg/ml, 37° C, 0.05M phosphate buffer pH 7, followed over 2 hours by paper chromatography): Slow conversion of the ester to clavulanic acid
- hydrolysis to clavulanic acid ([1]; water buffered to pH7): slowly hydrolyze to clavulanic acid
- MIC (Klebsiella aerogenes A [2]): > 10 µg/mL
- MIC [3]: > 100 µg/mL

- MIC (Staph. aureus Oxford; [11]): 31
- MIC (Bacillus subtilis A; [11]): 125
- MIC (Escherchia coli 10418; [11]): 125
- MIC (Staph. aureus Russell; [11]): 15
Compound: O=C1OC(OC(=O)[C@H]2/C(=C/CO)O[C@@H]3CC(=O)N32)c2ccccc21 (stereo partly shown) [Phthalidyl ester, Clavulanic Acid Phthalide Esters]

- MIC (Staph. aureus Oxford; Staphylococcus aureus): 31 µg/mL (≈ 98.9 µM)
- MIC (Bacillus subtilis A; Bacillus subtilis): 62 µg/mL (≈ 198 µM)
- MIC (Escherchia coli 10418): 125 µg/mL (≈ 399 µM)
- MIC (Staph. aureus Russell; Staphylococcus aureus): 62 µg/mL (≈ 198 µM)
Compound: CC(C)(C)C(=O)OCOC(=O)[C@H]1/C(=C/CO)O[C@@H]2CC(=O)N21 [Pivaloyloxymethyl ester, Pivaloyloxymethyl Clavulanate]

Compound: CC1(C)S[C@@H]2[C@H](NC(=O)[C@H](N)c3ccccc3)C(=O)N2[C@H]1C(=O)O [ampicillin]
- M.I.C. in the presence of 5 μg/ml. clavulanic acid methyl ester (Proteus mirabilis C889): 31 µg/mL
- Ampicillin 5 μg/ml of Benzyl Ester of clavulanic acid (M.I.C. by method of Example 42) (Klebsiella aerogenes 62; [12]): 3.9
- Ampicillin 5 μg/ml of Methyl Ester of clavulanic acid (M.I.C. by method of Example 42) (Klebsiella aerogenes 62; [13]): 3.9
- MIC [4]: > 100 µg/mL
- concentration inhibiting growth in the presence of 1 μg/ml. of clavulanic acid ([4]; plus 1 μg/ml clavulanic acid): less than 10 μg/ml
- MIC (Serratia marcescens): > 500 µg/mL
- Ampicillin 5 μg/ml of Benzyl Ester of clavulanic acid (M.I.C. by method of Example 42) (Klebsiella aerogenes A [5]; [12]): 1.9
- Ampicillin 5 μg/ml of Methyl Ester of clavulanic acid (M.I.C. by method of Example 42) (Klebsiella aerogenes A [5]; [13]): 1.9
- M.I.C. in the presence of 1.0 μg/ml. clavulanic acid methyl ester ([6]; plus 1 μg/ml clavulanic acid methyl ester): < 0.4 µg/mL
- MIC [7]: 1.8 µg/mL
- Ampicillin 5 μg/ml of Benzyl Ester of clavulanic acid (M.I.C. by method of Example 42) [8, 12]: 3.9
- Ampicillin 5 μg/ml of Methyl Ester of clavulanic acid (M.I.C. by method of Example 42) [8, 13]: 3.9
- MIC (Staphylococcus aureus): 250 µg/mL

Compound: CC1(C)S[C@@H]2[C@H](NC(=O)C(C(=O)O)c3ccccc3)C(=O)N2[C@H]1C(=O)O (stereo partly shown) [carbenicillin]
- Antibacterial synergism value, +5μg/ml. synergist (M.I.C. by method of Example 42) (Klebsiella aerogenes 62): 7.8
- MIC (Klebsiella aerogenes 62): 125 µg/mL
- Antibacterial synergism value, +5μg/ml. synergist (M.I.C. by method of Example 42) (Klebsiella aerogenes A [5]): 7.8
- MIC (Klebsiella aerogenes A [5]): 500 µg/mL
- MIC (Klebsiella aerogenes A [2]): > 125 µg/mL
- concentration inhibiting growth when 5 μg/ml. of clavulanic acid is also present (Klebsiella aerogenes A [2]): less than 12.5 μg/ml
- Antibacterial synergism value, +5μg/ml. synergist (M.I.C. by method of Example 42) [8]: 15
- MIC ([8]; E70, Alone (Tables 7, 8), Example 42 records M.I.C. in μg/ml, read-out: Antibacterial synergism value, Alone (M.I.C. by method of Example 42)): 500 µg/mL

- MIC (Staph. aureus Oxford; Staphylococcus aureus): 31 µg/mL (≈ 95.3 µM)
- MIC (Bacillus subtilis A; Bacillus subtilis): 31 µg/mL (≈ 95.3 µM)
- MIC (Escherchia coli 10418): 250 µg/mL (≈ 768 µM)
- MIC (Staph. aureus Russell; Staphylococcus aureus): 31 µg/mL (≈ 95.3 µM)
Compound: CCCCCCCCCOC(=O)[C@H]1/C(=C/CO)O[C@@H]2CC(=O)N21 [Nonyl ester, Nonyl Clavulanate]

Compound: O=C(Cc1cccs1)N[C@@H]1C(=O)N2C(C(=O)[O-])=C(C[n+]3ccccc3)CS[C@H]12 [cephaloridine]
- M.I.C. in the presence of 1.0 μg/ml. clavulanic acid methyl ester [6]: < 0.03 µg/mL
- MIC ([6]; Staphylococcus aureus, antibiotic alone, read-out: minimum inhibitory concentration (M.I.C.)): 1.5 µg/mL
- MIC ([9]; Staphylococcus aureus, agent alone (Tables 5, 6), inoculum final dilution 0.5 ×10^-2, 37° C overnight, read-out: Minimum Inhibitory Concentration): 3.1 µg/mL
- Minimum Inhibitory Concentration in presence of 5μg/ml clavulanic acid sodium salt [9, 14]: < 0.03 µg/mL
- MIC (Proteus mirabilis 899; Proteus mirabilis, 899, agent alone, * = Tailing Point, read-out: Minimum Inhibitory Concentration): 62 µg/mL (≈ 149 µM)
- Minimum Inhibitory Concentration in presence of 5μg/ml clavulanic acid sodium salt (Proteus mirabilis 899; plus 5 μg/ml clavulanic acid sodium salt): 7.5 µg/mL
- MIC (Staphylococcus aureus): 15 µg/mL
- Minimum Inhibitory Concentration in presence of 5μg/ml clavulanic acid sodium salt (Staphylococcus aureus; [14]): 3.7 µg/mL

Compound: O=C(O)[C@H]1/C(=C/CO)O[C@@H]2CC(=O)N21 [clavulanic acid, Z-(2R,5R)-3-(β-hydroxyethylidene)-7-oxo-4-oxa-1-azabicyclo[3,2,0]heptane-2-carboxylic acid]
- MIC [4]: > 5 µg/mL
- mode of inhibition of the β-lactamase of Escherichia coli [10]: progressively and irreversibly inhibits

- MIC (Staph. aureus Oxford; Staphylococcus aureus): 62 µg/mL (≈ 214 µM)
- MIC (Bacillus subtilis A; Bacillus subtilis): 250 µg/mL (≈ 864 µM)
- MIC (Escherchia coli 10418): 125 µg/mL (≈ 432 µM)
- MIC [3]: > 100 µg/mL
- MIC (Staph. aureus Russell; Staphylococcus aureus): 125 µg/mL (≈ 432 µM)
Compound: O=C(OCc1ccccc1)[C@H]1/C(=C/CO)O[C@@H]2CC(=O)N21 [Benzyl ester, benzyl ester of 3-(β-hydroxyethylidine)-7-oxo-4-oxa-1-azabicyclo [3,2,0]heptane-2-carboxylic acid]

Compound: CC1(C)S[C@@H]2[C@H](NC(=O)Cc3ccccc3)C(=O)N2[C@H]1C(=O)O [Benzylpenicillin, benzylpenicillin]
- Antibacterial synergism value, +5μg/ml. synergist (M.I.C. by method of Example 42) (Klebsiella aerogenes 62): 15.6
- MIC (Klebsiella aerogenes 62): 250 µg/mL
- Antibacterial synergism value, +5μg/ml. synergist (M.I.C. by method of Example 42) (Klebsiella aerogenes A [5]): 7.8
- MIC (Klebsiella aerogenes A [5]): 250 µg/mL
- MIC (Klebsiella aerogenes A [2]): > 125 µg/mL
- concentration inhibiting growth when 5 μg/ml. of clavulanic acid is also present (Klebsiella aerogenes A [2]): less than 12.5 μg/ml
- Antibacterial synergism value, +5μg/ml. synergist (M.I.C. by method of Example 42) [8]: 15.6
- MIC ([8]; E70, read-out: Antibacterial synergism value, Alone (M.I.C. by method of Example 42)): 500 µg/mL
